Assay results: PMC11243693, “Synthesis and Biological Evaluation of New Compounds with Nitroimidazole Moiety” (Molecules, 2024)
Values after ≈ are worked out from the molar mass of the structure shown.

Tests used:
Format in all cases: cell-based
[1] = test system: Candida parapsilosis ATCC 22019; assay: Broth microdilution, C. parapsilosis ATCC 22019; conditions: Cp 22019
In short: (§1)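 EUCAST broth microdilution with twofold dilutions from a 1000 µg/mL starting solution, in Mueller-Hinton broth for B. cereus or Mueller-Hinton plus 2% glucose for Candida. Inoculum was a 10-fold diluted 0.5 McFarland suspension. After 18 ± 2 h at 35 ± 2 °C, MIC was read by A570; MBC/MFC by subculture showing 99.9% kill.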

[2] = test system: Staphylococcus aureus ATCC 43300 methicillin-resistant MRSA; assay: Broth microdilution, S. aureus ATCC 43300 MRSA; conditions: Sa 43300 MRSA
In short: (§2)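 Compounds are diluted twofold, starting at 1000 µg/mL, in Mueller-Hinton medium, supplemented with 2% glucose for the yeast strains. Wells then receive a tenfold-diluted 0.5 McFarland inoculum and incubate 18 ± 2 h at 35 ± 2 °C. Absorbance at 570 nm gives the MIC.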

[3] = test system: Bacillus cereus ATCC 10876; assay: Broth microdilution, B. cereus ATCC 10876; conditions: Bc 10876; for MBC/MIC Ratio: <4 bactericidal, ≥4 bacteriostatic
In short: as §1

[4] = test system: Candida lusitaniae ATCC 3449; assay: Broth microdilution, C. lusitaniae ATCC 3449; conditions: Cl 3449
In short: as §1

[5] = test system: Candida krusei ATCC 14243; assay: Broth microdilution, C. krusei ATCC 14243; conditions: Ck 14243
In short: as §1

[6] = test system: Bacillus subtilis ATCC 6633; assay: Broth microdilution, B. subtilis ATCC 6633; conditions: Bs 6633; for MBC/MIC Ratio: <4 bactericidal, ≥4 bacteriostatic
In short: as §2

Candida auris CDC B11903 = assay: Broth microdilution, C. auris CDC B11903; conditions: Ca B11903
In short: as §1

[7] = test system: Micrococcus luteus ATCC 10240; assay: Broth microdilution, M. luteus ATCC 10240; conditions: Ml 10240; for MBC/MIC Ratio: <4 bactericidal, ≥4 bacteriostatic
In short: as §2

[8] = test system: Staphylococcus aureus ATCC 25923; assay: Broth microdilution, S. aureus ATCC 25923; conditions: Sa 25923
In short: as §2

[9] = test system: Candida tropicalis ATCC 1369; assay: Broth microdilution, C. tropicalis ATCC 1369; conditions: Ct 1369; for MFC/MIC Ratio: <4 fungicidal, ≥4 fungistatic
In short: as §1

[10] = test system: Staphylococcus epidermidis ATCC 12228; assay: Broth microdilution, S. epidermidis ATCC 12228; conditions: Se 12228; for MBC/MIC Ratio: <4 bactericidal, ≥4 bacteriostatic
In short: as §2

[11] = test system: Candida glabrata ATCC 15126; assay: Broth microdilution, C. glabrata ATCC 15126; conditions: Cg 15126
In short: as §1

[12] = test system: Staphylococcus aureus ATCC 6538; assay: Broth microdilution, S. aureus ATCC 6538; conditions: Sa 6538
In short: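 MIC: A570 after 18 ± 2 h, 35 ± 2 °C. Medium: MH broth (bacterium) or MH + 2% glucose (yeasts). Serial 2-fold dilutions of compound, top solution 1000 µg/mL. Inoculum: 0.5 McFarland suspension diluted 10×. MBC/MFC: subculture onto MHA or MHA + 2% glc, 99.9% growth inhibition.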

Candida spp. = assay: Broth microdilution, Candida spp.; conditions: for MBC (range, C. parapsilosis ATCC 22019 and C. tropicalis ATCC 1369) / MIC (range, C. parapsilosis ATCC 22019 and C. tropicalis ATCC 1369): range over both strains and the listed compounds
Method: The antibacterial activity of the obtained thiosemicarbazides and hydrazide–hydrazones was determined by evaluating their ability to inhibit microbial growth in vitro using the broth microdilution method, according to the guidelines of the European Committee on Antimicrobial Susceptibility Testing (EUCAST). The method involved the preparation of microbial suspensions with a standardized density of 0.5 on the McFarland scale (equivalent to 1.5 × 10^8 colony-forming units/mL for bacteria and […] for fungi). A solution of the test substances was then prepared (initial concentration 1000 µg/mL, diluted in sterile Mueller-Hinton broth for bacteria or Mueller-Hinton with 2% glucose for fungi). The test was carried out in 96-well polystyrene flat-bottom plates (Medlab, Poland) with 100 µL of appropriate sterile microbiological medium in each well. The first wells were filled with 200 µL of the test substance, diluted to the initial concentration, and then double-decreasing dilutions were made under aseptic conditions using an automatic pipette. The final step was the addition of a 10-fold diluted microbial suspension of 2 µL. At the same time, the following controls were included: (a) medium control (100 µL of sterile medium without microorganisms added), (b) microbial viability control, (c) test substance control (dilutions without added micro-organisms), (d) positive control of the drug used in the clinic. The plates thus prepared were incubated for 18 ± 2 h at 35 ± 2 °C under conditions optimal for the growth of the test microorganisms. After incubation, the spectrophotometric absorbance at 570 nm in each well of the plate was read. The aim of this part of the study was to determine two parameters: the minimum inhibitory concentration (MIC) and the minimum bactericidal or fungicidal concentration (MBC/MFC) of the test compound. […] The MBC value was determined by adding 5 µL of the contents of each well of the plate to solid sterile MHA or MHA + 2%glc medium for bacteria and fungi, respectively. The area on the plate where 99.9% inhibition of microbial growth was observed indicated the lethal concentration. In addition, the quotient MBC(MFC)/MIC could be determined to assess the nature of the activity of the test substance. If MBC(MFC)/MIC was <4, the test substance was bactericidal/fungicidal, whereas if MBC(MFC)/MIC was ≥4, it was bacteriostatic/fungistatic. Amoxicillin (Glentham Life Sciences, USA) and nystatin (Glentham Life Sciences, USA) were used as the controls for this assay.
The test was performed either on bacteria, comprising: Gram-positive (Staphylococcus aureus ATCC 25923, Staphylococcus aureus ATCC 6538, Staphylococcus aureus ATCC 43300 methicillin-resistant MRSA, Staphylococcus epidermidis ATCC 12228, Micrococcus luteus ATCC 10240, Bacillus subtilis ATCC 6633, Bacillus cereus ATCC 10876) and Gram-negative (Escherichia coli ATCC 25922, Pseudomonas aeruginosa ATCC 27853, Proteus mirabilis ATCC 12453, Klebsiella pneumoniae ATCC 13883) or yeast (Candida parapsilosis ATCC 22019, Candida glabrata ATCC 90030, Candida krusei ATCC 14243, Candida glabrata ATCC 15126, Candida tropicalis ATCC 1369, Candida auris CDC B11903, Candida lusitaniae ATCC 3449) reference strains from the American Type Culture Collection (ATCC) or the Centers for Disease Control and Prevention (CDC).

[13] = test system: Candida glabrata ATCC 90030; assay: Broth microdilution, C. glabrata ATCC 90030; conditions: Cg 90030
In short: as §1

Compound	MFC [1] [mg/L]	MIC [1] [mg/L]	MIC [2] [mg/L]	MBC [3] [mg/L]	MIC [3] [mg/L]	MIC [4] [mg/L]	MIC [5] [mg/L]	MBC [6] [mg/L]	MIC [6] [mg/L]	MBC/MIC Ratio [6]	MIC (Candida auris CDC B11903) [mg/L]	MBC [7] [mg/L]	MIC [7] [mg/L]	MBC [8] [mg/L]	MIC [8] [mg/L]	MIC [9] [mg/L]	MBC [10] [mg/L]	MIC [10] [mg/L]	MIC [11] [mg/L]	MIC [12] [mg/L]	also measured
Cn1cc([N+](=O)[O-])nc1C(=O)NNC(=S)Nc1cccc(C(F)(F)F)c1 [Compound 13]	1000 (≈ 2580 µM)	500 (≈ 1290 µM)	>1000	>1000	1000 (≈ 2580 µM)	>1000	>1000	500 (≈ 1290 µM)	500 (≈ 1290 µM)	1	>1000	>1000	500 (≈ 1290 µM)	>1000	500 (≈ 1290 µM)	>1000	>1000	1000 (≈ 2580 µM)	>1000	>1000	MFC/MIC Ratio ([1]; <4 fungicidal, ≥4 fungistatic): 2; MBC (range, C. parapsilosis ATCC 22019 and C. tropicalis ATCC 1369) (Candida spp.): 500 to 1000 mg/L; MIC (range, C. parapsilosis ATCC 22019 and C. tropicalis ATCC 1369) (Candida spp.): 62.5 to 1000 mg/L; MIC [13]: >1000 mg/L
Cn1cc([N+](=O)[O-])nc1C(=O)NNC(=S)Nc1ccccc1Cl [Compound 3]	>1000	250 (≈ 705 µM)	1000 (≈ 2820 µM)	>1000	1000 (≈ 2820 µM)	>1000	>1000	125 (≈ 352 µM)	125 (≈ 352 µM)	1	>1000	250 (≈ 705 µM)	250 (≈ 705 µM)	>1000	250 (≈ 705 µM)	250 (≈ 705 µM)	500 (≈ 1410 µM)	250 (≈ 705 µM)	>1000	500 (≈ 1410 µM)	MBC [2]: >1000 mg/L; MBC/MIC Ratio [7]: 1; MFC [9]: 500 mg/L (≈ 1410 µM); MFC/MIC Ratio [9]: 2; MBC/MIC Ratio [10]: 2; MBC [12]: >1000 mg/L; MBC (range, C. parapsilosis ATCC 22019 and C. tropicalis ATCC 1369) (Candida spp.): 500 to 1000 mg/L; MIC (range, C. parapsilosis ATCC 22019 and C. tropicalis ATCC 1369) (Candida spp.): 62.5 to 1000 mg/L; MIC [13]: >1000 mg/L
COc1cccc(NC(=S)NNC(=O)c2nc([N+](=O)[O-])cn2C)c1 [Compound 10]	>1000	250 (≈ 714 µM)	500 (≈ 1430 µM)	1000 (≈ 2850 µM)	500 (≈ 1430 µM)	>1000	>1000	500 (≈ 1430 µM)	125 (≈ 357 µM)	4	>1000	250 (≈ 714 µM)	250 (≈ 714 µM)	>1000	250 (≈ 714 µM)	250 (≈ 714 µM)	500 (≈ 1430 µM)	500 (≈ 1430 µM)	>1000	1000 (≈ 2850 µM)	MBC [2]: >1000 mg/L; MBC/MIC Ratio [3]: 2; MBC/MIC Ratio [7]: 1; MFC [9]: 1000 mg/L (≈ 2850 µM); MFC/MIC Ratio [9]: 4; MBC/MIC Ratio [10]: 1; MBC [12]: >1000 mg/L; antifungal activity towards tested Candida strains (Candida spp.; in words): fungistatic activity; MBC (range, C. parapsilosis ATCC 22019 and C. tropicalis ATCC 1369) (Candida spp.): 500 to 1000 mg/L; MIC (range, C. parapsilosis ATCC 22019 and C. tropicalis ATCC 1369) (Candida spp.): 62.5 to 1000 mg/L; MIC [13]: >1000 mg/L
Cn1cc([N+](=O)[O-])nc1C(=O)NNC(=S)Nc1ccccc1C(F)(F)F [Compound 12]	>1000	125 (≈ 322 µM)	1000 (≈ 2580 µM)	500 (≈ 1290 µM)	500 (≈ 1290 µM)	>1000	>1000	250 (≈ 644 µM)	250 (≈ 644 µM)	1	>1000	500 (≈ 1290 µM)	250 (≈ 644 µM)	>1000	250 (≈ 644 µM)	500 (≈ 1290 µM)	500 (≈ 1290 µM)	500 (≈ 1290 µM)	>1000	500 (≈ 1290 µM)	MBC [2]: >1000 mg/L; MBC/MIC Ratio [3]: 1; MBC/MIC Ratio [7]: 2; MFC [9]: 1000 mg/L (≈ 2580 µM); MFC/MIC Ratio [9]: 2; MBC/MIC Ratio [10]: 1; MBC [12]: >1000 mg/L; MBC (range, C. parapsilosis ATCC 22019 and C. tropicalis ATCC 1369) (Candida spp.): 500 to 1000 mg/L; MIC (range, C. parapsilosis ATCC 22019 and C. tropicalis ATCC 1369) (Candida spp.): 62.5 to 1000 mg/L; MIC [13]: >1000 mg/L
